Assay results taken from patent EP0541192A1, “Use of opiate antagonists for the treatment of endogen hyperinsulinemia” (Ferring Arzneimittel GmbH, priority 1991, dated 1993).

Experiments:
[1] = oral glucose tolerance test (oGTT) before and after 4 weeks of treatment; format: in vivo, Frauen; conditions: 50 mg/Tag oral
Description: (§1) Die folgenden Untersuchungen wurden an vier gegenüber Insulin resistenten Frauen durchgeführt, welche ein Hyperandrogenämie litten. Das Alter der Frauen lag zwischen 16 und 33 Jahren und ihr Körpermasseindex (Body mass Index - BMI) reichte von 28 bis 41. Die Hyperandrogenämie wurde durch Bestimmung von LH, FSH, Prolactin, Testosteron, freien Testosteronen, SHBG und DHEAS im Serum diagnostiziert. Vor der Behandlung lagen die Testosteronwerte zwischen 0,4 und 1,65 ng/ml und die Insulinkonzentrationen betrugen von 25 bis 62 mcU/ml.
Die Insulinresistenz wurde durch orale Verabreichung von 400 ml einer Lösung nachgewiesen, welche eine Mono-Oligosaccharidmischung enthielt, die nach enzymatischer Hydrolyse im Gastrointestinaltrakt 100 g Glucose lieferte (Dextro-oGTT, Boehringer Mannheim). Während des oralen Glucose-Toleranz-Tests (oGTT) wurden vor der Kohlenhydratbelastung und danach 3 Stunden lang im Abstand von jeweils 15 Minuten Blutproben entnommen. In allen Proben wurde die Glucosekonzentration mit dem Hexokinase/Glucose-6-Phosphatdehydrogenase-Verfahren bestimmt. Ferner wurden die Insulin- und C-Peptidkonzentrationen mit handelsüblichen Radioimmun-Kits (Serono Diagnostic, Freiburg) bestimmt. Die Ergebnisse des oGTT wurden ausgewertet, indem das Verhältnis von Insulin zu Glucose berechnet wurde und die Flächen unter den Glucose-, Insulin- und C-Peptid-Kurven während des oGTT bestimmt wurden (vgl. Figur 1).
(§2) Als Opiat-Antagonist wurde Naltrexon (Ferring Arzneimittel GmbH, Kiel) in einer Dosis von 50 mg/Tag oral verabreicht. 4 Wochen nach Beginn der Naltrexon-Behandlung wurde nach dem gleichen Verfahren wie oben beschrieben ein zweiter oGTT durchgeführt und die Ergebnisse dieses Tests mit den vor Beginn der Behandlung erhaltenen Ergebnissen verglichen, wobei die Proben paarweise einem t-Test unterworfen wurden.

[2] = serum androgen and pituitary hormone levels during treatment; format: in vivo, Frauen; conditions: 50 mg/Tag oral
Description: as §1, §2
Im Gegensatz dazu blieben die Androgenkonzentrationen sowie die LH-, FSH- und Prolactin-Spiegel durch die Naltrexon-Behandlung unbeeinflußt.

[3] = side effects / tolerability during treatment; format: in vivo, Frauen; conditions: 50 mg/Tag oral
[4] = general statement, no data; cited from earlier work

For O=C1CC[C@@]2(O)[C@H]3Cc4ccc(O)c5c4[C@@]2(CCN3CC2CC2)C1O5 (stereo partly drawn) [Naltrexon, 17-(Cyclopropylmethyl)-4,5-epoxy-3,14-dihydroxymorphinan-6-on], the “Verhältnis von Insulin zu Glucose” value ([1]; oGTT) was “sank”, the “molare Verhältnis von C-Peptid zu Insulin” value ([1]; oGTT) was “stieg” and the “Konzentration von C-Peptid” value ([1]; oGTT, reduced, but not to the same extent as insulin) was “reduziert”. For the same molecule, the “Insulinspiegel nach Kohlenhydratbelastung” value ([1]; four insulin-resistant hyperandrogenaemic women, oGTT vs. before treatment) was “beeindruckende Senkung”, the Androgenkonzentrationen [2] was “unbeeinflußt” and the FSH-Spiegel [2] was “unbeeinflußt”. The LH-Spiegel [2] was “unbeeinflußt”, the Prolactin-Spiegel [2] was “unbeeinflußt” and the “Veränderungen des Blutbildes, der Leberenzyme und des Nierenstatus” value [3] was “nicht beobachtet”. For the same molecule, the Nebenwirkungen ([3]; one of four patients) was “Übelkeit mit Erbrechen und leichten Kopfschmerzen”, the Verträglichkeit ([3]; three of four patients) was “gut vertragen” and the “Verweildauer im Plasma” value [4] was “lange”.
